In brackets after ≈: the same amount, converted by molar mass. Activity calls are given as the source filed them. The calls are words filed in the database; no cut-off is given here.

In one experiment the test system is SF-268. As to the kind of experiment: Cytotoxicity against human SF268 cells after 3 days by sulforhodamine B assay. Type of experiment: functional, cell-based. As to conditions: for IC50: SF-268, 72 h. A general note: In SRB staining, fixed cells bind dye roughly in proportion to their protein.
A further experiment concerns MCF7. As to the kind of experiment: Cytotoxicity against human MCF7 cells after 3 days by sulforhodamine B assay. The format is functional, cell-based. The note with it: for IC50: MCF7, 72 h.
In another experiment the test system is Saccharomyces cerevisiae. As to the kind of experiment: Antifungal activity against Saccharomyces cerevisiae after 3 days by broth microdilution method. As to conditions: 72 h. Type of experiment: functional. On the technique in general: Dilution methods test growth across graded concentrations, often in twofold steps.
In another experiment the test system is Aspergillus niger. As to the kind of experiment: Antifungal activity against Aspergillus niger after 3 days by broth microdilution method. Type of experiment: functional. As to conditions: 72 h.
The next experiment has as its system Micrococcus luteus. As to the kind of experiment: Antibacterial activity against Micrococcus luteus after 3 days by broth microdilution method. The format is functional. As to conditions: 72 h.
Experiment [1] has as its system Mycolicibacterium smegmatis. As to the kind of experiment: Antibacterial activity against Mycobacterium smegmatis after 3 days by broth microdilution method. Type of experiment: functional. As to conditions: 72 h.
The next experiment concerns KB. The experiment can be described thus: Cytotoxicity against human KB cells after 3 days by sulforhodamine B assay. Type of experiment: functional, cell-based. The note with it: for IC50: 72 h.
The test system of another experiment is NCI-H460. The experiment can be described thus: Cytotoxicity against human NCI-H460 cells after 3 days by sulforhodamine B assay. The format is functional, cell-based. The note with it: for IC50: NCI-H460, 72 h.

Broadly, the IC50 is the concentration that gives 50% inhibition. Lower therefore signals greater potency. As a reminder, the MIC is the lowest concentration that inhibits growth of the organism. In the case of `C=C1C[C@@]23CC[C@H]4[C@@](C)(CCC[C@]4(C)C(=O)O)[C@@H]2CC[C@@H]1C3`, the half-maximal inhibitory concentration (IC50) in the experiment on SF-268, in the experiment with MCF7, in the experiment on KB and with NCI-H460 was greater than 10 µM in each case. Besides, the MIC with Saccharomyces cerevisiae was 50 µg/mL (≈ 165 µM); against Aspergillus niger, 100 µg/mL (≈ 331 µM); in the experiment with Micrococcus luteus, 50 µg/mL (≈ 165 µM); in experiment [1], 50 µg/mL (≈ 165 µM).

On to `C=CCCC#CC#CC#C/C=C/CCCC[C@@H]1C[C@@H](CO)OC1=O`, for which the half-inhibitory concentration (IC50) with SF-268, with MCF7, in the experiment with KB and with NCI-H460 was 10 µM each time. Moreover, the MIC was found to be 12 µg/mL (≈ 37 µM) with Saccharomyces cerevisiae, 12 µg/mL (≈ 37 µM) in the experiment with Aspergillus niger, 50 µg/mL (≈ 154 µM) against Micrococcus luteus and 12 µg/mL (≈ 37 µM) in experiment [1].

Take `C=C1C[C@]2(C(=O)O)C[C@H]1CC[C@H]2[C@]1(C)CCC[C@@](C)(C(=O)OC)[C@H]1C(=O)O`: the IC50 in the experiment on SF-268, with MCF7, with KB and in the experiment on NCI-H460 was greater than 10 µM throughout. For the same compound, the MIC in the experiment on Saccharomyces cerevisiae turned out to be 150 µg/mL (≈ 396 µM); against Aspergillus niger, 150 µg/mL (≈ 396 µM); against Micrococcus luteus, 150 µg/mL (≈ 396 µM); in experiment [1], 75 µg/mL (≈ 198 µM).

Take `CC1(C)S[C@@H]2[C@H](NC(=O)[C@H](N)c3ccccc3)C(=O)N2[C@H]1C(=O)O` [AMPICILLIN]: the MIC against Micrococcus luteus is 0.1 µg/mL (≈ 0.286 µM).

With `C=CCCC#CC#CC#CCCCCCC[C@@H]1C[C@@H](CO)OC1=O` [OROPHEOLIDE], the IC50 in the experiment with SF-268, in the experiment with MCF7, with KB and with NCI-H460 was 10 µM throughout. Moreover, the MIC stood at 63 µg/mL (≈ 193 µM) against Saccharomyces cerevisiae, 250 µg/mL (≈ 766 µM) with Aspergillus niger, 125 µg/mL (≈ 383 µM) in the experiment with Micrococcus luteus and 31 µg/mL (≈ 95 µM) in experiment [1].

With `CCCCC#CC#CC#CCCCCCCCC(=O)O`, the concentration for half-maximal inhibition (IC50) with SF-268, with MCF7, in the experiment on KB and in the experiment with NCI-H460 was 10 µM in each case. For the same compound, the MIC came to 25 µg/mL (≈ 91.8 µM) in the experiment on Saccharomyces cerevisiae, 50 µg/mL (≈ 184 µM) against Aspergillus niger, 25 µg/mL (≈ 91.8 µM) in the experiment on Micrococcus luteus and 25 µg/mL (≈ 91.8 µM) in experiment [1].

The compound `NC[C@H]1O[C@H](O[C@H]2[C@H](O)[C@@H](O[C@H]3O[C@H](CO)[C@@H](O)[C@H](N)[C@H]3O)[C@H](N)C[C@@H]2N)[C@H](O)[C@@H](O)[C@@H]1O` [KANAMYCIN] registered an MIC in experiment [1] of 0.2 µg/mL (≈ 0.413 µM).

For the compound `O=C1c2ccccc2-c2c3c(cc4ccnc1c24)OCO3` [LIRIODENINE], the half-inhibitory concentration (IC50) with SF-268, in the experiment with MCF7, with KB and in the experiment on NCI-H460 was 5 µM in each case. Moreover, the MIC with Saccharomyces cerevisiae is 12 µg/mL (≈ 43.6 µM); against Aspergillus niger, 25 µg/mL (≈ 90.8 µM); in the experiment with Micrococcus luteus, 6.3 µg/mL (≈ 22.9 µM); in experiment [1], 12 µg/mL (≈ 43.6 µM).

As to `C[C@@H]1[C@H](O)[C@@H](C)/C=C/C=C/C=C/C=C/C=C/C=C/C=C/[C@H](O[C@@H]2O[C@H](C)[C@@H](O)[C@H](N)[C@@H]2O)C[C@@H]2O[C@](O)(C[C@@H](O)C[C@@H](O)[C@H](O)CC[C@@H](O)C[C@@H](O)CC(=O)O[C@H]1C)C[C@H](O)[C@H]2C(=O)O` [AMPHOTERICIN B], the MIC against Saccharomyces cerevisiae and in the experiment on Aspergillus niger was 25 µg/mL (≈ 27.1 µM) throughout.

Turning to `C=CCCC#CC#CC#CCCCCCCCC(=O)O` [OROPHEIC ACID], the half-inhibitory concentration (IC50) in the experiment on SF-268, in the experiment on MCF7, with KB and with NCI-H460 was 10 µM throughout. In addition, the MIC against Saccharomyces cerevisiae came out at 47 µg/mL (≈ 174 µM); in the experiment with Aspergillus niger, 188 µg/mL (≈ 695 µM); in the experiment on Micrococcus luteus it was 94 µg/mL (≈ 348 µM); in experiment [1], 94 µg/mL (≈ 348 µM).

On to `C=C1C[C@]23C[C@H]1CC[C@H]2[C@]1(C)CCC[C@@]2(C)C(=O)O[C@@H](C3=O)[C@@H]12` [MITREKAURENONE], for which the half-inhibitory concentration (IC50) with SF-268, with MCF7, in the experiment on KB and in the experiment with NCI-H460 was greater than 10 µM each time. The minimum inhibitory concentration (MIC) in the experiment with Saccharomyces cerevisiae was determined as 38 µg/mL (≈ 121 µM); in the experiment with Aspergillus niger it was 38 µg/mL (≈ 121 µM); in the experiment on Micrococcus luteus, 150 µg/mL (≈ 477 µM); in experiment [1], 38 µg/mL (≈ 121 µM).

Take `C=CCCC#CC#CC#CCCCCCCCC(=O)OC` [METHYLOROPHEATE]: the result with SF-268, in the experiment on MCF7, in the experiment with KB and in the experiment with NCI-H460 was inactive. Moreover, the MIC stood at 25 µg/mL (≈ 87.9 µM) in the experiment with Saccharomyces cerevisiae, 25 µg/mL (≈ 87.9 µM) in the experiment with Aspergillus niger, 50 µg/mL (≈ 176 µM) in the experiment on Micrococcus luteus and 12 µg/mL (≈ 42.2 µM) in experiment [1].

For the origin of these results see ChEMBL document CHEMBL1153697, “Bioactive constituents of the stem bark of Mitrephora glabra” (J Nat Prod, 2009).
